Results: US10532995B2, “Substituted pyrazole compounds as serine protease inhibitors” (VERSEON CORPORATION, priority 2015, dated 2020)
Where a name gives a salt, the structure may show the parent alone.

The compounds below were run against T1, Human thrombin (Homo sapiens, UniProt P00734) (assay: Thrombin protease activity inhibition, chromogenic substrate S-2238). Conditions: 3 nM thrombin, 125 μM S-2238, 10 min pre-incubation, RT.
T1 construct: purchased Haematologic Technologies Inc
Type: biochemical
Summary of the method: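 Ten-point, three-fold serial dilutions of compound tested against 3 nM enzyme at RT in Tris buffer (0.05 M, pH 7.4) with 0.015 M NaCl and 0.01% PEG-8000.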
In the case of `O=C(c1ccoc1)n1nc(C2CCCN2)cc1NCc1ccc(Cl)s1` (stereo not shown) [Entry 167, N-[(5-chlorothiophen-2-yl)methyl]-1-(furan-3-carbonyl)-3-(pyrrolidin-2-yl)-1H-pyrazol-5-amine], the IC50 is reported as < 100 nM.
`CC(C)(C)C(=O)N1CC(c2cc(NCc3ccc(Cl)s3)n(C(=O)C(C)(C)C)n2)C1` [Entry 96, 1-[3-(5-[(5-chlorothiophen-2-yl)methyl]amino-1-(2,2-dimethylpropanoyl)-1H-pyrazol-3-yl)azetidin-1-yl]-2,2-dimethylpropan-1-one] was tested, and the IC50 was 100 to 1000 nM.
`O=C(N1CCOCC1)N1C2CCC1CC(c1cc(NCc3ccc(Cl)s3)n(C(=O)c3cscn3)n1)C2` (stereo not shown) [Entry 213, N-[(5-chlorothiophen-2-yl)methyl]-3-[8-(morpholine-4-carbonyl)-8-azabicyclo[3.2.1]octan-3-yl]-1-(1,3-thiazole-4-carbonyl)-1H-pyrazol-5-amine] was tested, and the IC50 was < 100 nM.
For `CC1(C(=O)n2nc(C3CCN(C(=O)N4CCOCC4)CC3)cc2NCc2ccc(Cl)s2)CCC(O)CC1` (stereo not shown) [Entry 139, 4-(5-[(5-chlorothiophen-2-yl)methyl]amino-3-[1-(morpholine-4-carbonyl)piperidin-4-yl]-1H-pyrazole-1-carbonyl)-4-methylcyclohexan-1-ol], the IC50 was < 100 nM.
`COc1ccccc1C(=O)n1nc(C2CCN(CC(F)(F)F)CC2)cc1NCc1ccc(Cl)s1` [Entry 160, N-[(5-chlorothiophen-2-yl)methyl]-1-(2-methoxybenzoyl)-3-[1-(2,2,2-trifluoroethyl)piperidin-4-yl]-1H-pyrazol-5-amine] showed an IC50 of 1000 to 10000 nM.
In the case of `Clc1ccc(CNc2cc(C3CCN(Cc4cccnc4)CC3)n[nH]2)s1` [Entry 211, N-[(5-chlorothiophen-2-yl)methyl]-3-[1-(pyridin-3-ylmethyl)piperidin-4-yl]-1H-pyrazol-5-amine], the IC50 is reported as > 100000 nM.
`C=CCOC(=O)N1CC(c2cc(NCc3ccc(Cl)s3)n(C(=O)C(C)(C)C)n2)C1` [Entry 255, prop-2-en-1-yl 3-(5-[(5-chlorothiophen-2-yl)methyl]amino-1-(2,2-dimethylpropanoyl)-1H-pyrazol-3-yl)azetidine-1-carboxylate] was tested, and the IC50 was < 100 nM.
For `CN(C)C(=O)N1CCC(c2cc(NCc3ccc(Cl)s3)n(C(=O)C(C)(C)CO)n2)CC1` [Entry 134, 4-(5-[(5-chlorothiophen-2-yl)methyl]amino-1-(3-hydroxy-2,2-dimethylpropanoyl)-1H-pyrazol-3-yl)-N,N-dimethylpiperidine-1-carboxamide], the IC50 was < 100 nM.
For `CN(C)S(=O)(=O)N1CCC(c2cc(NCc3ccc(Cl)s3)n(C(=O)C(C)(C)CO)n2)CC1` [Entry 135, 4-(5-[(5-chlorothiophen-2-yl)methyl]amino-1-(3-hydroxy-2,2-dimethylpropanoyl)-1H-pyrazol-3-yl)-N,N-dimethylpiperidine-1-sulfonamide], the IC50 was < 100 nM.
In the case of `Clc1ccc(CNc2cc(C3CCN(Cc4ncco4)CC3)n[nH]2)s1` [Entry 193, N-[(5-chlorothiophen-2-yl)methyl]-3-[1-(1,3-oxazol-2-ylmethyl)piperidin-4-yl]-1H-pyrazol-5-amine], the IC50 is reported as > 100000 nM.
Compound `CC(C)(C)OC(=O)N1CCCC(C)(c2cc(NCc3ccc(Cl)s3)n(C(=O)C3(C)CCOCC3)n2)C1` (stereo not shown) [Entry 286, tert-butyl 3-(5-[(5-chlorothiophen-2-yl)methyl]amino-1-(4-methyloxane-4-carbonyl)-l H-pyrazol-3-yl)-3-methylpiperidine-1-carboxylate] has an IC50 of 100 to 1000 nM.
Compound `Cc1c(C2CCN(C(=O)OC(C)(C)C)CC2)nn(C(=O)C(C)(C)C)c1NCc1ccc(Cl)s1` [Entry 293, tert-butyl 4-(5-[(5-chlorothiophen-2-yl)methyl]amino-1-(2,2-dimethylpropanoyl)-4-methyl-1H-pyrazol-3-yl)piperidine-1-carboxylate] has an IC50 of 100 to 1000 nM.
`FC(F)(F)c1cccc(CN2CCC(c3cc(NCc4ccc(Cl)s4)[nH]n3)CC2)n1` [Entry 176, N-[(5-chlorothiophen-2-yl)methyl]-3-(1-[6-(trifluoromethyl)pyridin-2-yl]methylpiperidin-4-yl)-1H-pyrazol-5-amine] was tested, and the IC50 was > 100000 nM.
Work on `COc1ccccc1C(=O)n1nc(C2(C)CCCNC2)cc1NCc1ccc(Cl)s1` (stereo not shown) [Entry 153, N-[(5-chlorothiophen-2-yl)methyl]-1-(2-methoxybenzoyl)-3-(3-methylpiperidin-3-yl)-1H-pyrazol-5-amine] yielded an IC50 of 1000 to 10000 nM.
Work on `C=CCOC(=O)N1CCN(C(=O)N2CCOCC2)CC1c1cc(NCc2ccc(Cl)s2)n(C(=O)c2cscn2)n1` (stereo not shown) [Entry 240, prop-2-en-1-yl 2-(5-[(5-chlorothiophen-2-yl)methyl]amino-1-(1,3-thiazole-4-carbonyl)-1H-pyrazol-3-yl)-4-(morpholine-4-carbonyl)piperazine-1-carboxylate] yielded an IC50 of 100 to 1000 nM.
With `COCC(C)(C)C(=O)n1nc(C2(C)CCN(C(=O)OC(C)(C)C)CC2)cc1NCc1ccc(Cl)s1` [Entry 298, tert-butyl 4-(5-[(5-chlorothiophen-2-yl)methyl]amino-1-(3-methoxy-2,2-dimethylpropanoyl)-1H-pyrazol-3-yl)-4-methylpiperidine-1-carboxylate] the IC50 was < 100 nM.
`CC1(C(=O)n2nc(C3CCOCC3)c(F)c2NCc2ccc(Cl)s2)CCOCC1` [Entry 229, N-[(5-chlorothiophen-2-yl)methyl]-4-fluoro-1-(4-methyloxane-4-carbonyl)-3-(oxan-4-yl)-1H-pyrazol-5-amine] was tested, and the IC50 was < 100 nM.
With `C=CCOC(=O)N1CCC(c2cc(NCc3ccc(Cl)s3)[nH]n2)CC1` [Entry 266, prop-2-en-1-yl 4-(5-[(5-chlorothiophen-2-yl)methyl]amino-1H-pyrazol-3-yl)piperidine-1-carboxylate] the IC50 was > 100000 nM.
`CC1(c2cc(NCc3ccc(Cl)s3)n(C(=O)c3ccsc3)n2)CCNC1=O` (stereo not shown) [Entry 124, 3-(5-[(5-chlorothiophen-2-yl)methyl]amino-1-(thiophene-3-carbonyl)-1H-pyrazol-3-yl)-3-methylpyrrolidin-2-one] gave an IC50 of 100 to 1000 nM.
`O=C(c1ccsc1)n1nc(C2CCOCC2)cc1NCc1ccc(Cl)s1` [Entry 181, N-[(5-chlorothiophen-2-yl)methyl]-3-(oxan-4-yl)-1-(thiophene-3-carbonyl)-1H-pyrazol-5-amine] showed an IC50 of 100 to 1000 nM.
In the case of `Clc1ccc(CNc2cc(C3CCN(Cc4ncon4)CC3)n[nH]2)s1` [Entry 191, N-[(5-chlorothiophen-2-yl)methyl]-3-[1-(1,2,4-oxadiazol-3-ylmethyl)piperidin-4-yl]-1H-pyrazol-5-amine], the IC50 is reported as > 100000 nM.
`C=CCOC(=O)N1CCC(c2n[nH]c(NCc3ccc(Cl)s3)c2F)CC1` [Entry 269, prop-2-en-1-yl 4-(5-[(5-chlorothiophen-2-yl)methyl]amino-4-fluoro-1H-pyrazol-3-yl)piperidine-1-carboxylate] was tested, and the IC50 was > 100000 nM.
`CC(C)(C)OC(=O)N1CCC(c2cc(NCc3ccc(Cl)s3)n(C(=O)C(C)(C)CO)n2)CC1` [Entry 297, tert-butyl 4-(5-[(5-chlorothiophen-2-yl)methyl]amino-1-(3-hydroxy-2,2-dimethylpropanoyl)-1H-pyrazol-3-yl)piperidine-1-carboxylate] was tested, and the IC50 was < 100 nM.
In the case of `O=C(N1CCOCC1)N1CCNC(c2cc(NCc3ccc(Cl)s3)[nH]n2)C1` (stereo not shown) [Entry 212, N-[(5-chlorothiophen-2-yl)methyl]-3-[4-(morpholine-4-carbonyl)piperazin-2-yl]-1H-pyrazol-5-amine hydrochloride], the IC50 is reported as > 100000 nM.
Work on `COCC(C)(C)C(=O)n1nc(C2(C)CCCNC2=O)cc1NCc1ccc(Cl)s1` (stereo not shown) [Entry 120, 3-(5-[(5-chlorothiophen-2-yl)methyl]amino-1-(3-methoxy-2,2-dimethylpropanoyl)-1H-pyrazol-3-yl)-3-methylpiperidin-2-one] yielded an IC50 of 1000 to 10000 nM.
In the case of `Cc1c(C2CCN(C(=O)OC(C)(C)C)CC2)n[nH]c1NCc1ccc(Cl)s1` [Entry 303, tert-butyl 4-(5-[(5-chlorothiophen-2-yl)methyl]amino-4-methyl-1H-pyrazol-3-yl)piperidine-1-carboxylate], the IC50 is reported as > 100000 nM.
With `COc1ccc(C(=O)n2nc(C3CCNCC3)cc2NCc2ccc(Cl)s2)c(OC)c1` [Entry 147, N-[(5-chlorothiophen-2-yl)methyl]-1-(2,4-dimethoxybenzoyl)-3-(piperidin-4-yl)-1H-pyrazol-5-amine] the IC50 was 1000 to 10000 nM.
In the case of `O=C(c1ccoc1)n1nc(C2CNC2)cc1NCc1ccc(Cl)s1` [Entry 128, 3-(azetidin-3-yl)-N-[(5-chlorothiophen-2-yl)methyl]-1-(furan-3-carbonyl)-1H-pyrazol-5-amine; trifluoroacetic acid], the IC50 is reported as 1000 to 10000 nM.
In the case of `CC(C)(C)OC(=O)N1CCC(C)(c2cc(NCc3ccc(Cl)s3)n(C(=O)C(C)(C)CO)n2)CC1` [Entry 296, tert-butyl 4-(5-[(5-chlorothiophen-2-yl)methyl]amino-1-(3-hydroxy-2,2-dimethylpropanoyl)-1H-pyrazol-3-yl)-4-methylpiperidine-1-carboxylate], the IC50 is reported as < 100 nM.
For `C=CCOC(=O)N1CCCC(c2cc(NCc3ccc(Cl)s3)[nH]n2)CC1` (stereo not shown) [Entry 265, prop-2-en-1-yl 4-(5-[(5-chlorothiophen-2-yl)methyl]amino-1H-pyrazol-3-yl)azepane-1-carboxylate], the IC50 was > 100000 nM.
For `Clc1ccc(CNc2cc(C3CCN(Cc4ncno4)CC3)n[nH]2)s1` [Entry 192, N-[(5-chlorothiophen-2-yl)methyl]-3-[1-(1,2,4-oxadiazol-5-ylmethyl)piperidin-4-yl]-1H-pyrazol-5-amine], the IC50 was > 100000 nM.
`Clc1ccc(CNc2cc(C3CCN(Cc4cnco4)CC3)n[nH]2)s1` [Entry 194, N-[(5-chlorothiophen-2-yl)methyl]-3-[1-(1,3-oxazol-5-ylmethyl)piperidin-4-yl]-1H-pyrazol-5-amine] was tested, and the IC50 was > 100000 nM.
For `CC(C)(C)C(=O)n1nc(C2(C)CCCNC2=O)cc1NCc1ccc(Cl)s1` (stereo not shown) [Entry 115, 3-(5-[(5-chlorothiophen-2-yl)methyl]amino-1-(2,2-dimethylpropanoyl)-1H-pyrazol-3-yl)-3-methylpiperidin-2-one], the IC50 was 100 to 1000 nM.
`CC(C)(CO)C(=O)n1nc(C2CCN(CC(=O)O)CC2)cc1NCc1ccc(Cl)s1` [Entry 110, 2-[4-(5-[(5-chlorothiophen-2-yl)methyl]amino-1-(3-hydroxy-2,2-dimethylpropanoyl)-1H-pyrazol-3-yl)piperidin-1-yl]acetic acid] showed an IC50 of 100 to 1000 nM.
